# How the values were obtained:
# Rat Adjuvant Arthritis = test: Effects on Rat Adjuvant Arthritis; format: in vivo; conditions: 336 h, Lewis rats, 50 mg/kg once a day for 14 days; for change in vivo at 50 mg/kg: based on drug-unadministered rats, read-out: Increase rate of body weight (%); for inhibition in vivo at 50 mg/kg: left hind leg, 14th day, read-out: Swelling inhibitory rate (%)
# [1] = tested on: Rat Carrageenin Paw Edema; test: Rat Carrageenin Paw Edema Inhibitory Activity; format: in vivo; conditions: Jcl:SD rats, 50 mg/kg orally, 3 hours after carrageenin
# Experimental: Rat Carrageenin Paw Edema Inhibitory Activity
# The volume of a planter part of a right hind leg of Jcl:SD rats (male, 6 weeks old) was measured, and then suspension of a test drug (50 mg/kg) in 5% acacia was administered orally. Then water was administered additionally so that the total amount of administered liquid became 5 ml/rat. After 1 hour, a suspension (0.05 ml) containing 1% carrageenin in physiological saline was injected intradermally into the plantar to induce swelling [Winter, C. A. et al; Proc. Soc. Exp. Biol. Med., 111, 544 (1962)]. The volume of the right hind leg was measured again 3 hours after the carrageenin injection, and swelling inhibitory rate was calculated from the difference in the volumes before and after the injection.
# [2] = tested on: mouse phenylquinone writhing; test: Analgesic Activity in Mice (phenylquinone writhing model); format: in vivo; conditions: Slc:ICR mice, 50 mg/kg orally, 20 minutes
# Experimental: Analgesic Activity in Mice
# A drug (50 mg/kg) suspended in 5% acacia was administered orally to Slc:ICR mice (male, 4 weeks old). After 30 minutes, a 0.02% phenylquinone solution (0.1 ml/[…]) in 5% ethanol was administered intraperitoneally. Writhing and stretching reactions for 20 minutes after the injection were calculated for each mouse to evaluate analgesic activity of the test drug [Siegmund, E. et al.; Proc. Soc. Exp. Biol. Med., 95, 729 (1957)].
# IL-1β = test: Anti-IL-1 activity (extracellular substrates of rat cartilage cells); format: cell-based; conditions: 72 h, IL-1β 0.2 ng/ml, 3 days, read-out: IL-1 inhibitory activity (%)
# Experimental: Rat cartilage cells were prepared according to the known method [Fujio Suzuki et al., Sin Seikagaku Jikken Kohza, 18, p.871-875 (1990)] and cultivated in Dulbecco's Medium containing 10% fetal bovine serum. After 8 days, various concentrations of a test drug and IL-1β (0.2 ng/ml) were added, and the cells were cultivated for additional 3 days. The amount of extracellular substrates thus produced was determined.
# Although IL-1β inhibits the synthesis of extracellular substrates of cartilage cells, addition of the drug inhibits the IL-1 activity and the amount of extracellular substrates synthesized was recovered.
# mice = test: Oral toxicity in mice; format: in vivo; conditions: 300 mg/kg administered orally to mice
# Experimental: The compounds of the present invention have low toxicity. For example, when 300 mg/kg of the compounds prepared in Examples 36, 45, 47, 54 and 64 were administered orally to mice, no mice died. Therefore, the compounds of the present invention are useful as an anti-inflammatory agent, particularly an agent for treating arthritis producing inflammatory symptoms, in humans and other mammals.
# [3] = tested on: Antigen-responsive T cell; test: Antigen-Responsive T Cell Growth Inhibitory Activity (PPD-stimulated 3H-Tdr incorporation); format: cell-based, Lewis rats; conditions: PPD 2 μg/ml, Lewis rat T cells, read-out: Antigen-responsive T cell growth inhibitory rate (%)
# Experimental: Antigen-Responsive T Cell Growth Inhibitory Activity
# According to the method of Test Example 1, adjuvant arthritis was induced in Lewis rats (male, 7 weeks old). After 14 days, lymphonodi inguinales were excised. Then, a single-cell suspension was prepared by using RPMI-1640 medium containing 5% fetal bovine serum and then incubated at 37° C. for 1 hour in a nylon wool column. The cells were eluted from the column with the same medium. The non-adsorptive cell-fraction was used as T cells.
# On the other hand, spleen cells were taken out from unsensitized Lewis rats (male, 8 to 9 weeks old) and irradiated with soft X-rays (20,000 R). To the spleen cells (1×10^5 cells/well) were added the above T cells (5×10^5 cells/well), PPD (Purified Protein Derivatives; final concentration: 2 μg/ml) and 2% Lewis rat serum (treated at 56° C. for 30 minutes). The mixture was incubated at 37° C. for 72 hours in a 5% carbonic acid incubator. Further, ^3 H-Tdr (0.5 μCi/well) was added followed by incubation for 24 hours. The cells were recovered, and the radioactivity of ^3 H-Tdr incorporated into the cells was determined. The test drug was added to the cell suspension just before the addition of PPD, and effects on incorporation of ^3 H-Tdr into the cells were observed.
structure (smiles),measurement,setting,value
"CCOC(=O)c1c(C[S+]([O-])c2nccn2C)nc2cc(OC)c(OC)cc2c1-c1ccc(OC)c(OC)c1 (stereo not drawn) [Example 2, ethyl 6,7-dimethoxy-4-(3,4-dimethoxyphenyl)-2-[(1-methylimidazol-2-yl)sulfinylmethyl]quinoline-3-carboxylate]",change in vivo at 50 mg/kg,Rat Adjuvant Arthritis,39%
same,inhibition in vivo at 50 mg/kg,Rat Adjuvant Arthritis,73%
"CCOC(=O)c1c(C[S+]([O-])c2nc3ccccc3[nH]2)nc2cc(OC)c(OC)cc2c1-c1ccc(OC)c(OC)c1 (stereo not drawn) [Example 3, ethyl 2-[(2-benzimidazolyl)sulfinylmethyl]-6,7-dimethoxy-4-(3,4-dimethoxyphenyl)quinoline-3-carboxylate]",Swelling inhibitory rate (%),[1],23%
"CCOC(=O)c1c(CSc2nc3ccccc3[nH]2)nc2cc(OC)c(OC)cc2c1-c1ccc(OC)cc1 [Example 27, ethyl 6,7-dimethoxy-4-(4-methoxyphenyl)-2-[(benzimidazol-2-yl)thiomethyl]quinoline-3-carboxylate]",Inhibitory rate (%),[2],39%
"CCOC(=O)c1c(CSc2nccn2C)nc2cc(OC)c(OC)cc2c1-c1ccc(OC)cc1 [Example 28, ethyl 6,7-dimethoxy-4-(4-methoxyphenyl)-2-[(1-methylimidazol-2-yl)thiomethyl]quinoline-3-carboxylate]",Inhibitory rate (%),[2],43%
same,inhibition at 1 µM,IL-1β,34%
same,inhibition at 10 µM,IL-1β,44%
"CCOC(=O)c1c(CSc2nccn2C)nc2cc(OC)c(OC)cc2c1-c1ccc(C)cc1 [Example 33, ethyl 6,7-dimethoxy-4-(4-methylphenyl)-2-[(1-methylimidazol-2-yl)thiomethyl]quinoline-3-carboxylate]",change in vivo at 50 mg/kg,Rat Adjuvant Arthritis,12%
same,inhibition in vivo at 50 mg/kg,Rat Adjuvant Arthritis,67%
"CCOC(=O)c1c(CSc2nncn2C)nc2cc(OC)c(OC)cc2c1-c1ccc(OC)c(OC)c1 [Example 35, ethyl 6,7-dimethoxy-4-(3,4-dimethoxyphenyl)-2-[(4-methyl-1,2,4-triazol-3-yl)thiomethyl]quinoline-3-carboxylate]",change in vivo at 50 mg/kg,Rat Adjuvant Arthritis,11%
same,inhibition in vivo at 50 mg/kg,Rat Adjuvant Arthritis,64%
"CCOC(=O)c1c(CSc2nccn2C)nc2cc(OC)c(OC)cc2c1-c1ccc(OC)c(OC)c1 [Example 36, ethyl 6,7-dimethoxy-4-(3,4-dimethoxyphenyl)-2-[(1-methylimidazol-2-yl)thiomethyl]quinoline-3-carboxylate]",mortality,mice,no mice died
same,inhibition at 1 µM,[3],33%
same,inhibition at 10 µM,[3],79%
same,Inhibitory rate (%),[2],59%
same,change in vivo at 50 mg/kg,Rat Adjuvant Arthritis,30%
same,inhibition in vivo at 50 mg/kg,Rat Adjuvant Arthritis,48%
same,inhibition at 1 µM,IL-1β,22%
same,inhibition at 10 µM,IL-1β,48%
"CCOC(=O)c1c(CSCc2ccc(Cl)cc2)nc2cc(OC)c(OC)cc2c1-c1ccc(OC)c(OC)c1 [Example 41, ethyl 6,7-dimethoxy-4-(3,4-dimethoxyphenyl)-2-[(4-chlorophenyl)methylthiomethyl]quinoline-3-carboxylate]",inhibition at 1 µM,IL-1β,17%
same,inhibition at 10 µM,IL-1β,50%
"CCOC(=O)c1c(CSc2ccc(Cl)cc2)nc2cc(OC)c(OC)cc2c1-c1ccc(OC)c(OC)c1 [Example 42, ethyl 6,7-dimethoxy-4-(3,4-dimethoxyphenyl)-2-[(4-chlorophenyl)thiomethyl]quinoline-3-carboxylate]",Inhibitory rate (%),[2],47%
"CCOC(=O)c1c(CSc2nccc(=O)[nH]2)nc2cc(OC)c(OC)cc2c1-c1ccc(OC)c(OC)c1 [Example 45, ethyl 6,7-dimethoxy-4-(3,4-dimethoxyphenyl)-2-[(6(1H)-pyrimidon-2-yl)thiomethyl]quinoline-3-carboxylate]",mortality,mice,no mice died
same,inhibition at 1 µM,[3],36%
same,inhibition at 10 µM,[3],70%
"CCOC(=O)c1c(CSc2ncccc2O)nc2cc(OC)c(OC)cc2c1-c1ccc(OC)c(OC)c1 [Example 46, ethyl 6,7-dimethoxy-4-(3,4-dimethoxyphenyl)-2-[(3-hydroxypyridin-2-yl)thiomethyl]quinoline-3-carboxylate]",inhibition at 1 µM,[3],39%
same,inhibition at 10 µM,[3],92%
"CCOC(=O)c1c(CSC2=NCCS2)nc2cc(OC)c(OC)cc2c1-c1ccc(OC)c(OC)c1 [Example 47, ethyl 6,7-dimethoxy-4-(3,4-dimethoxyphenyl)-2-[(2-thiazolin-2-yl)thiomethyl]quinoline-3-carboxylate]",mortality,mice,no mice died
same,inhibition at 1 µM,[3],61%
same,inhibition at 10 µM,[3],93%
"CCOC(=O)c1c(CSc2nc3ccccc3[nH]2)nc2cc(OC)c(OC)cc2c1-c1ccc(OC)c(OC)c1 [Example 53, ethyl 6,7-dimethoxy-4-(3,4-dimethoxyphenyl)-2-[(benzimidazol-2-yl)thiomethyl]quinoline-3-carboxylate]",inhibition at 1 µM,[3],51%
same,inhibition at 10 µM,[3],91%
same,inhibition at 1 µM,IL-1β,39%
same,inhibition at 10 µM,IL-1β,71%
"CCOC(=O)c1c(CSc2nc3ccc(F)cc3[nH]2)nc2cc(OC)c(OC)cc2c1-c1ccc(OC)c(OC)c1 [Example 54, ethyl 6,7-dimethoxy-4-(3,4-dimethoxyphenyl)-2-[(5-fluorobenzimidazol-2-yl)thiomethyl]quinoline-3-carboxylate]",mortality,mice,no mice died
same,Swelling inhibitory rate (%),[1],21%
"CCOC(=O)c1c(CSc2nc3ccccc3s2)nc2cc(OC)c(OC)cc2c1-c1ccc(OC)c(OC)c1 [Example 60, ethyl 6,7-dimethoxy-4-(3,4-dimethoxyphenyl)-2-[(benzothiazol-2-yl)thiomethyl]quinoline-3-carboxylate]",inhibition at 1 µM,[3],59%
same,inhibition at 10 µM,[3],91%
same,Swelling inhibitory rate (%),[1],31%
"CCOC(=O)c1c(CSc2nnc3ccccn23)nc2cc(OC)c(OC)cc2c1-c1ccc(OC)c(OC)c1 [Example 66, ethyl 6,7-dimethoxy-4-(3,4-dimethoxyphenyl)-2-[(pyrido[1,2-a][1,3,4]triazol-5-yl)thiomethyl]quinoline-3-carboxylate]",Inhibitory rate (%),[2],58%
"CCOC(=O)c1c(CSc2nccn2C)nc2cc(OC)c(OC)cc2c1-c1ccc2c(c1)OCO2 [Example 69, ethyl 6,7-dimethoxy-4-(3,4-methylenedioxyphenyl)-2-[(1-methylimidazol-2-yl)thiomethyl]quinoline-3-carboxylate]",change in vivo at 50 mg/kg,Rat Adjuvant Arthritis,17%
same,inhibition in vivo at 50 mg/kg,Rat Adjuvant Arthritis,63%
"CCOC(=O)c1c(CSc2nccn2C)nc2cc(OCC)c(OCC)cc2c1-c1ccc(OC)c(OC)c1 [Example 72, ethyl 6,7-diethoxy-4-(3,4-dimethoxyphenyl)-2-[(1-methylimidazol-2-yl)thiomethyl]quinoline-3-carboxylate]",change in vivo at 50 mg/kg,Rat Adjuvant Arthritis,27%
same,inhibition in vivo at 50 mg/kg,Rat Adjuvant Arthritis,50%
"CCOC(=O)c1c(CCc2nccn2C)nc2cc(OC)c(OC)cc2c1-c1ccc(OC)c(OC)c1 [Example 87, ethyl 6,7-dimethoxy-4-(3,4-dimethoxyphenyl)-2-[2-(1-methylimidazol-2-yl)ethyl]quinoline-3-carboxylate]",change in vivo at 50 mg/kg,Rat Adjuvant Arthritis,27%
same,inhibition in vivo at 50 mg/kg,Rat Adjuvant Arthritis,75%
"COc1ccc(-c2nc(CCc3nccn3C)nc3cc(OC)c(OC)cc23)cc1OC [Example 88, 6,7-dimethoxy-4-(3,4-dimethoxyphenyl)-2-[2-(1-methylimidazol-2-yl)ethyl]quinazoline]",change in vivo at 50 mg/kg,Rat Adjuvant Arthritis,24%
same,inhibition in vivo at 50 mg/kg,Rat Adjuvant Arthritis,62%

# — US5948782A, “Pharmaceutical composition containing quinoline and quinazoline derivatives and novel compounds therefor” (Takeda Chemical, priority 1992, dated 1999)
